These results are taken from patent publication US20240408100A1, “TREATMENT METHODS FOR SUBJECTS HAVING CANCER WITH A DYSREGULATED MAPK AND/OR PI3K PATHWAY” (TAIHO PHARMACEUTICAL CO., LTD., priority 2021, published 2024).

Data set [1] has as its system ER+/HER2− breast cancer cell lines. The data set is described as follows: immunoblotting, combination with fulvestrant, presence and absence of estrogen and NF1. The data set is classed as cell-based. The procedure:
The actual standard of care for ER+/HER2− breast cancer uses the adjuvant therapies such as tamoxifen, letrozole, or fulvestrant. Patients with recurrent or refractory tumors are treated with additional use of CDK4/6 inhibitors or Alpelisib for PIK3CA-mutated cancers.
(A western blot detects proteins with antibodies after separation by electrophoresis.)

The next data set relates to LS180. The data set is described as follows: 3-day growth inhibition assay. The conditions noted are these: Homo sapiens; LS180 (Colon), KRAS p.G12D, PIK3CA p.H1047R, PTEN p.I67K; read-out: Growth inhibition (IC50: nmol/L). Format: cell-based. The procedure: (§1) The IC50 values for each compound in cell lines used in a series of animal experiments evaluating the antitumor effects of Compound (1) on KRAS mutant tumor xenografts were determined by a 3-day growth inhibition assay (Table 7).

The next data set relates to LU65. In words: 3-day growth inhibition assay. Format: cell-based. The conditions noted are these: Homo sapiens, Lu-65; LU65 (NSCLC), KRAS p.G12C; read-out: Growth inhibition (IC50: nmol/L). Here is the method: as §1
The next data set concerns SW1573. In words: 3-day growth inhibition assay. The data set is classed as cell-based. The following applies: Homo sapiens; SW1573 (NSCLC), KRAS p.G12C, PIK3CA p.K111E; read-out: Growth inhibition (IC50: nmol/L). Here is the method: as §1
Data set [2] concerns SW1573 human lung tumor xenografts. The following applies: 30 mg/kg/day.
Data set [3] concerns LU65 human lung tumor xenografts. In words: antitumor effect in mice with LU65 xenograft tumors. The conditions noted are these: 30 mg/kg/day.
Protocol: The tumor volumes and body weights of animals were recorded.
Another data set deals with BT483. The data set is described as follows: growth inhibition assay, NF1 mutant cell line. Format: cell-based. The conditions noted are these: Homo sapiens, BT-483; BT483, ER+ breast, NF1 p.R1204W. The text has this:
(§2) In order to investigate the growth inhibitory effect of Compound (1) in NF1 mutant cancer cell lines, the IC50 values of growth inhibition assay were obtained and compared then in Table 2.
(§3) In this experiment, to compare the growth inhibitory effect of Compound (1) with those of MAPK and PI3K signaling inhibitors, the IC50 values of trametinib (as a MEK inhibitor), and Alpelisib (as a PI3K inhibitor) were obtained and compared.

In another data set the test system is H1838. The data set is described as follows: growth inhibition assay, NF1 mutant cell line. The following applies: Homo sapiens, NCI-H1838; H1838, lung, NF1 p.N184Qfs*17. Format: cell-based.
Excerpt: as §2, §3

A further data set has as its system HCC202. In words: growth inhibition assay, NF1 mutant cell line. Format: cell-based. The conditions noted are these: HCC202, HER2+ breast, NF1 p.X465_splice.
Excerpt: as §2, §3

For the next data set, the system named is HCT116. The data set is described as follows: growth inhibition assay, NF1 mutant cell line. The data set is classed as cell-based. The conditions noted are these: Homo sapiens, HCT-116; HCT116, colon, NF1 p.P678Rfs*10, p.P388T.
Excerpt: as §2, §3

Another data set deals with MDA-MB-175VII. In words: growth inhibition assay, NF1 mutant cell line. The data set is classed as cell-based. The following applies: Homo sapiens, ER+ breast, NF1 p.1679Dfs*21.
Excerpt: as §2, §3

In a further data set the test system is MDA-MB-231. The data set is described as follows: growth inhibition assay, NF1 mutant cell line. Format: cell-based. The conditions noted are these: Homo sapiens; MDA-MB-231, TN breast, NF1 p.T467Hfs*3.
Excerpt: as §2, §3

A further data set has as its system MeWo. In words: growth inhibition assay, NF1 mutant cell line. Format: cell-based. The following applies: Homo sapiens, melanoma, NF1 p.Q1336*.
Excerpt: as §2, §3

A further data set concerns RKO. The data set is described as follows: growth inhibition assay, NF1 mutant cell line. The data set is classed as cell-based. The following applies: Homo sapiens, colon.
Excerpt: as §2, §3

The next data set relates to NF1 mutant cell lines. In words: growth inhibition assay, summary over the panel. The conditions noted are these: range over the cell lines of Table 2; read-out: IC50 values, range over NF1 mutant cell lines. Format: cell-based.
Excerpt: as §2, §3

A further data set has as its system AsPC-1. In words: 3-day growth inhibition assay. The data set is classed as cell-based. The conditions noted are these: Homo sapiens, ASPC1; AsPC-1 (Pancreas), KRAS p.G12D; read-out: Growth inhibition (IC50: nmol/L). Here is the method:
as §1

Data set [4] deals with LS180 human colorectal tumor xenografts. In words: antitumor effect in mice with LS180 xenograft tumors. The data set is classed as in vivo. The following applies: 1 mg/kg/day. The procedure:
The oncogenic KRAS mutations are diverse, including not only G12C but also G12X and G13X in the mutation hotspot Glycine at […]. To determine whether Compound (1), which targets downstream of MAPK and PI3K signaling, is effective against G12D mutated cancers, an efficacy experiment of Compound (1) was conducted using subcutaneously transplanted LS180 tumor derived from colorectal cancers with KRAS G12D and PIK3CA and PTEN gene alterations.
Evaluation was conducted by comparing the efficacy of 80 mg/kg/day of Compound (1) with that of 1 mg/kg/day MEK inhibitor trametinib used as a reference group.

Data set [5] concerns AsPC-1 human pancreatic tumor xenografts. The following applies: 1 mg/kg/day.
Protocol: All treatments were administered every day by oral gavage. The tumor volumes and body weights of animals were recorded.
Data set [6] deals with MCF7 cells (control and NF1 knockdown). In words: immunoblotting of target inhibition and apoptosis induction. The data set is classed as cell-based, human. Here is the method:
To investigate the mechanism of action of Compound (1) in inhibiting the growth of NF1 knockdown breast cancer cells, Compound (1), trametinib, Alpelisib, and fulvestrant were exposed to NF1-knockdown MCF7 and T47D cells at indicated final concentration for 24 hours. NF1, pPRAS40 Thr246, pYB1 Ser102, pS6RP Ser235/236, ERα, and cleaved PARP were detected by immunoblotting.

Each structure is given as a SMILES string.

As for `C[C@]12CC[C@@H]3c4ccc(O)cc4C[C@@H](CCCCCCCCC[S+]([O-])CCCC(F)(F)C(F)(F)F)[C@H]3[C@@H]1CC[C@@H]2O` (some centres unmarked) [fulvestrant], the apoptosis induction result in [1] (single agent, presence or absence of estrogen, NF1 wildtype and NF1 knockdown cells) is “little apoptosis inducing activity”. For the same molecule, the ER reduction result in data set [1] (treatment with fulvestrant alone) is reported as “ER reduction was observed clearly”.

`C=CC(=O)N1CCN(c2nc(=O)n(-c3c(C)ccnc3C(C)C)c3nc(-c4c(O)cccc4F)c(F)cc23)[C@@H](C)C1` [AMG510, sotorasib, reference compound]: the IC50 in the data set on LS180 was above 10000 nmol/L; in the data set on LU65 it was 7.17 nmol/L; in the data set on SW1573 it was above 10000 nmol/L. The “T/C ratio (%)” value in data set [2] (Day 15) was 54%; in data set [3] (Day 13), 46%. The Number of deaths was found to be 0 in data set [2] (qd Day 1-14, po) and 0 in [3]. In addition, in data set [2] (qd Day 1-14, po), the “Tumor volume (mm^3) Day 15 Mean ± SE” value is reported as 429.2 ± 60.2 mm^3. Moreover, the “Tumor volume (mm^3) Day 13 Mean ± SE” value in data set [3] (qd, po) turned out to be 1067.9 ± 139.4 mm^3.

For the molecule `CC(=O)Nc1cccc(-n2c(=O)n(C3CC3)c(=O)c3c(Nc4ccc(I)cc4F)n(C)c(=O)c(C)c32)c1` [Trametinib], the IC50 in the data set on BT483 was above 2000 nM; in the data set on H1838, above 2000 nM; in the data set on HCC202, above 2000 nM; with HCT116, 16 nM; in the data set on MDA-MB-175VII it was 40 nM; in the data set on MDA-MB-231, above 10000 nM. Further, the IC50 in the data set with MeWo was 176 nM; in the data set with RKO it was 40 nM; with NF1 mutant cell lines, at least 16 nM; with AsPC-1, 0.693 nmol/L; with LS180, 9 nmol/L; in the data set with LU65, 0.739 nmol/L. The IC50 with SW1573 is above 10000 nmol/L. In addition, the Number of deaths in data set [4] and in data set [5] was 0 each time. The entries for the “T/C ratio (%)” value in [4] (Day 15) and in data set [5] (Day 22) were 76% and 51%, respectively. In addition, in data set [4] (qd Day 1-14, po), the “Tumor volume (mm^3) Day 15 Mean ± SE” value is on record as 1129.3 ± 73.5 mm^3. For the same molecule, the “Tumor volume (mm^3) Day 22 Mean ± SE” value in [5] (qd Day 1-21, po) was determined as 482.5 ± 25.6 mm^3.

For the molecule `Cc1nc(NC(=O)N2CCC[C@H]2C(N)=O)sc1-c1ccnc(C(C)(C)C(F)(F)F)c1` [Alpelisib], the IC50 with BT483 is 179 nM; in the data set with H1838 it was 6410 nM; with HCC202, 918 nM; in the data set on HCT116, 6340 nM; with MDA-MB-175VII it was 1090 nM; in the data set with MDA-MB-231, above 10000 nM. Also, the IC50 in the data set on MeWo is above 10000 nM; in the data set with RKO it was 2700 nM; in the data set on NF1 mutant cell lines, at least 179 nM. Further, the “apoptosis induction (cleaved PARP signal)” value in [6] (MCF7 NF1 knockdown cells versus control cells) is “attenuated”; in [6] (MCF7 control cells (non-targeting siRNA), single agent), “induced apoptosis”.
